Patent publication EP4707279A1, “SUBSTITUTED TRICYCLIC HETEROCYCLIC COMPOUND AS PHARMACEUTICAL FOR TREATMENT OR PREVENTION OF COVID-19” (priority 2023, dated 2024)

What was measured:
SARS-CoV-2 [1] = experiment: microbe, parasite or virus in culture; assay type: cell-based; conditions: Severe acute respiratory syndrome coronavirus 2, VeroE6-TMPRSS2 cells, read-out: inhibition of CPE
VeroE6-TMPRSS2 cells = conditions: 48 hours, CellTiter-Glo
Procedure: (§1) To evaluate the cytotoxicity of the selected compound, CellTiter-Glo (registered trademark) Luminescent Cell Viability Assay (Promega Corporation, Madison, WI, USA) was conducted. Briefly, VeroE6-TMPRSS2 or Caco-2 cells (4×10^4 cells/well) were incubated with different concentrations of the compound for 48 hours, and then, the number of cells was measured as the amount of ATP in the cell lysate supernatant using CellTiter-Glo (registered trademark) Luminescent Cell Viability Assay method. The CC50 of the compound was calculated by GraphPad. The repeated test was conducted three times.
(§2) VeroE6 (ATCC CRL-1586 (registered trademark)) and Vero E6-TMPRSS2 (BPS Bioscience Catalog #78081) as well as Caco-2 cells (ATCC HTB-37 (registered trademark)) were purchased as commercial products and they were passaged in Dulbecco's Modified Eagle Medium (DMEM, Gibco, CA, USA) supplemented with 10% heat-inactivated fetal bovine serum (FBS, Gibco, CA, USA), 50 U/mL penicillin, and 50 µg/mL streptomycin. All antibiotics and supplements were purchased from Thermo Fisher Scientific, Inc. (Waltham, MA).

Caco-2 cells = conditions: 48 hours, CellTiter-Glo
Procedure: as §1, §2

SARS-CoV-2 [2] = experiment: CPE inhibition assay, anti-SARS-CoV-2 virus activity in vitro (Test Example 4); assay type: cell-based; conditions: for inhibition at 10 µM: Severe acute respiratory syndrome coronavirus 2, VeroE6/TMPRSS2, 72 h, read-out: Anti SARS-CoV-2 activity
[3] = CPE inhibition at 10 µM, VeroE6-TMPRSS2 cells, MOI 0.01, third day post infection, average of three tests

CCC(CC)COC(=O)[C@H](C)N[P@](=O)(OC[C@H]1O[C@@](C#N)(c2ccc3c(N)ncnn23)[C@H](O)[C@@H]1O)Oc1ccccc1 [Remdesivir]
inhibition at 10 µM (SARS-CoV-2 [1]): ≥ 90%

O=C(NCc1ccc2ccccc2c1)[C@@H]1CC[C@H]2N1C(=O)[C@@H](Cc1ccccc1)N1C(=O)N(Cc3ccccc3)C(=O)N(Cc3ccccc3)[C@]21O [Compound 1D, (6R,9S,11aR,11bR)-1,3,6-Tribenzyl-11b-hydroxy-N-(naphthalen-2-ylmethyl)-2,4,7-trioxo-2H-pyrrolo[2',1':3,4] pyridazine[1,2-a][1,3,5]triazine-9-carboxamide]
CC50 (VeroE6-TMPRSS2 cells): 145 µM | CC50 (Caco-2 cells): > 400 µM | Anti SARS-CoV-2 activity (SARS-CoV-2 [2]; 10 µM): A (a CPE inhibition effect of 5% or more)

O=C(NCc1ccc2ccccc2c1)[C@@H]1CCC2=C3N(c4ccccc4)C(=O)N(c4ccccc4)C(=O)N3[C@H](Cc3ccccc3)C(=O)N21 [Compound 16E, (6R,9S)-6-Benzyl-N-(naphthalen-2-ylmethyl)-2,4,7-trioxo-1,3-diphenyl-1,3,4,6,7,9,10,11-octahydro-2H-pyrrolo [2',1':3,4]pyrazino[1,2-a][1,3,5]triazine-9-carboxamide]
inhibition at 10 µM (SARS-CoV-2 [2]): 1 to 5%

Ethyl (6S,9R,11aS)-6-benzyl-11b-hydroxy-2,4.7-trioxo-1,3-bis(thiophen-2-ylmethyl) decahydro-2H-pyrrolo[2',1':3,4] pyrazino[1,2-a][1,3,5] triazine-9-carboxylate [Compound 23A]
Anti SARS-CoV-2 activity (SARS-CoV-2 [2]; [3]): A (a CPE inhibition effect of 5% or more)

(6R,9S,11aR,11bR)-1,3-Dibenzyl-11b-hydroxy-6-isopropyl-N-(naphthalen-2-ylmethyl)-2,4,7-trioxodecahydro-2H-pyrrolo[ 2',1':3,4]pyrazino[1,2-a] [1,3,5]triazine^-9^-carbamide [Compound 3D]
Anti SARS-CoV-2 activity (SARS-CoV-2 [2]; [3]): A (a CPE inhibition effect of 5% or more)

(6R.11aR)-1,3,6-tribenzyl-11b-hydroxy-11a-methylhexahydro-2H-pyrrolo[2',1':3,4] pyrazino[1,2-a][1,3,5] triazine-2,4,7(3H,6H)-trione [Compound 19A]
Anti SARS-CoV-2 activity (SARS-CoV-2 [2]; [3]): A (a CPE inhibition effect of 5% or more)

Ethyl (6R)-1,3,6-tribenzyl-11b-hydroxy-2,4,7-trioxodecahydro-2H-pyrrolo[2',1':3,4] pyridazino[1,2-a] [1,3,5]triazine-9-carboxylate [Compound 22A]
Anti SARS-CoV-2 activity (SARS-CoV-2 [2]; [3]): B (a CPE inhibition effect of less than 5% but 1% or more)

O=C(NCc1ccc2ccccc2c1)[C@@H]1CCC2=C3N(Cc4ccccc4)C(=O)N(Cc4ccccc4)C(=O)N3[C@H](CC3CCCC3)C(=O)N21 [Compound 8E, (6R,9S)-1,3-Dibenzyl-6-(cyclopentylmethyl)-N-(naphthalen-2-ylmethyl)-2,4,7-trioxo-1,3,4,6,7,9,10,11-octahydro-2H-pyrrolo [2',1':3,4]pyrazino[1,2-a] [1,3,5]triazine-9-carboxamide]
inhibition at 10 µM (SARS-CoV-2 [2]): < 1%

(6R,9S,10aR)-1,3,6-tribenzyl-10b-hydroxy-N-(naphthalen-2-ylmethyl)-2,4,7-trioxodecahydroazeto[2',1 ':3,4]pyrazino[1.2-a][1,3,5]triazine-9-carboxamide [Compound 20D]
Anti SARS-CoV-2 activity (SARS-CoV-2 [2]; [3]): A (a CPE inhibition effect of 5% or more)

CC(C)[C@@H]1C(=O)N2[C@H](C(=O)NCc3ccccc3)CC[C@@H]2[C@@]2(O)N(Cc3ccccc3)C(=O)N(Cc3ccccc3)C(=O)N12 [Compound 3F, (6R,9S,11aR,11bR)-N,1,3-tribenzyl-11b-hydroxy-6-isopropyl-2,4,7-trioxodecahydro-2H-pyrrolo[2',1':3,4]pyrazino[1,2-a][1,3,5]triazine-9-carboxamide]
inhibition at 10 µM (SARS-CoV-2 [2]): > 5%

CCN(C(=O)NCCCN(C)C)C(=O)[C@@H]1CC[C@H]2N1C(=O)[C@@H](Cc1ccccc1)N1C(=O)N(Cc3cccs3)C(=O)N(Cc3cccs3)C21O (stereo partly drawn) [Compound 18H, (6R,9S,11aR)-6-benzyl-N-((3-(dimethylamino)propyl)carbamoil)-N-ethyl-11b-Hydroxy-2,4,7-trioxo-1,3-bis(thiophen-2-ylmethyl)decahydro-2H-pyrrolo[2',1':3,4] pyrazino[1,2-a][1,3,5]triazine-9-carboxamide]
Anti SARS-CoV-2 activity (SARS-CoV-2 [2]; [3]): A (a CPE inhibition effect of 5% or more)
